Reference: patent US12310975B2, “Modulators of BCL6 proteolysis and associated methods of use” (Arvinas Operations, Inc., priority 2019, dated 2025)

Tests used:
[1] = molecular target: T1, BCL6 (Homo sapiens (Human), UniProt P41182); experiment: BCL6 TR-FRET assay (BCL6-Avitag-Biotin / BCoR-Cy5 peptide); type: binding; conditions: class symbols A-D; read-out: IC50 (nM)***
Outline: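 TR-FRET displacement assay: biotinylated His-SUMO-BCL6-Avitag (2 nM) pre-incubated 30 min at room temperature with compound (12-point 3-fold titration), then BCoR-Cy5 peptide (100 nM) and Eu-streptavidin (2 nM) added. Buffer: 50 mM HEPES pH 7.5, 125 mM NaCl, 0.01% Triton X, glutathione or DTT, 0.03% BSA. Read after 2 h.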

[2] = molecular target: T1, BCL6; experiment: Immunofluorescence high content imaging of BCL6 degradation in T47D cells; type: cell-based; conditions: for Dmax: T47D, maximum, class symbols A-C; for DC50: class symbols A-D, read-out: EC50 (nM)*
Outline: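 Read-out is BCL6 immunofluorescence quantified by high-content imaging (10×, 4 fields per well) of T47D breast cancer cells. Cells were exposed for 3 days to degrader in an 11-point, 3-fold serial dilution reaching a final top concentration of 0.1 or 1 μM.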

IC50 [1] | Dmax [2] | DC50 [2] | Structure (SMILES)
≥ 100 nM | < 50% | > 100 nM | Cn1c(=O)cc(NC(C)(C)c2ncccn2)c2cc(Nc3nc(N4CCC(CN5CCN(c6ccc7c(c6)C(=O)N(C6CCC(=O)NC6=O)C7=O)CC5)CC4)ncc3Cl)ccc21 (centres unmarked) [compound 156, 5-(4-((1-(5-chloro-4-((1-methyl-2-oxo-4-((2-(pyrimidin-2-yl)propan-2-yl)amino)-1,2-dihydroquinolin-6-yl)amino)pyrimidin-2-yl)piperidin-4-yl)methyl)piperazin-1-yl)-2-(2,6-dioxopiperidin-3-yl)isoindoline-1,3-dione]
< 10 nM | 50 to 70% | 10 to 50 nM | CC(=O)COc1cc2cc(Nc3nc(N4CCC(N5CCC(N(C)CCOc6ccc7c(c6)CN(C6CCC(=O)NC6=O)C7=O)C5)CC4)ncc3Cl)ccc2n(C)c1=O (centres unmarked) [compound 157, 3-(5-(2-((1-(1-(5-chloro-4-((1-methyl-2-oxo-3-(2-oxopropoxy)-1,2-dihydroquinolin-6-yl)amino)pyrimidin-2-yl)piperidin-4-yl)pyrrolidin-3-yl) (methyl)amino)ethoxy)-1-oxoisoindolin-2-yl)piperidine-2,6-dione]
< 10 nM | < 50% | 10 to 50 nM | CC(=O)COc1cc2cc(Nc3nc(N4CCN(C5CCN(CCCOc6ccc7c(c6)CN(C6CCC(=O)NC6=O)C7=O)C5)CC4)ncc3Cl)ccc2n(C)c1=O (centres unmarked) [compound 158, 3-(5-(3-(3-(4-(5-chloro-4-((1-methyl-2-oxo-3-(2-oxopropoxy)-1,2-dihydroquinolin-6-yl)amino)pyrimidin-2-yl)piperazin-1-yl)pyrrolidin-1-yl)propoxy)-1-oxoisoindolin-2-yl)piperidine-2,6-dione]
10 to 50 nM | 50 to 70% | 10 to 50 nM | CC(=O)COc1cc2cc(Nc3nc(N4CCN(C5CCN(c6ccc7c(c6)C(=O)N(C6CCC(=O)NC6=O)C7=O)CC5)CC4)ncc3Cl)ccc2n(C)c1=O (centres unmarked) [compound 160, 5-(4-(4-(5-chloro-4-((1-methyl-2-oxo-3-(2-oxopropoxy)-1,2-dihydroquinolin-6-yl)amino)pyrimidin-2-yl)piperazin-1-yl)piperidin-1-yl)-2-(2,6-dioxopiperidin-3-yl)isoindoline-1,3-dione]
10 to 50 nM | < 50% | 10 to 50 nM | CC(=O)COc1cc2cc(Nc3nc(N4CCN(C5CCCN(c6ccc7c(c6)C(=O)N(C6CCC(=O)NC6=O)C7=O)C5)CC4)ncc3Cl)ccc2n(C)c1=O (centres unmarked) [compound 161, 5-(3-(4-(5-chloro-4-((1-methyl-2-oxo-3-(2-oxopropoxy)-1,2-dihydroquinolin-6-yl)amino)pyrimidin-2-yl)piperazin-1-yl)piperidin-1-yl)-2-(2,6-dioxopiperidin-3-yl)isoindoline-1,3-dione]
10 to 50 nM | < 50% | 10 to 50 nM | CC(=O)COc1cc2cc(Nc3nc(N4CCC(CCN5CCN(c6ccc7c(c6)C(=O)N(C6CCC(=O)NC6=O)C7=O)CC5)CC4)ncc3Cl)ccc2n(C)c1=O (centres unmarked) [compound 162, 5-(4-(2-(1-(5-chloro-4-((1-methyl-2-oxo-3-(2-oxopropoxy)-1,2-dihydroquinolin-6-yl)amino)pyrimidin-2-yl)piperidin-4-yl)ethyl)piperazin-1-yl)-2-(2,6-dioxopiperidin-3-yl)isoindoline-1,3-dione]
10 to 50 nM | 50 to 70% | 10 to 50 nM | CC(=O)COc1cc2cc(Nc3nc(N4CCN(C(=O)C5CCN(c6ccc7c(c6)C(=O)N(C6CCC(=O)NC6=O)C7=O)CC5)CC4)ncc3Cl)ccc2n(C)c1=O (centres unmarked) [compound 163, 5-(4-(4-(5-chloro-4-((1-methyl-2-oxo-3-(2-oxopropoxy)-1,2-dihydroquinolin-6-yl)amino)pyrimidin-2-yl)piperazine-1-carbonyl)piperidin-1-yl)-2-(2,6-dioxopiperidin-3-yl)isoindoline-1,3-dione]
10 to 50 nM | < 50% | > 100 nM | CC(=O)COc1cc2cc(Nc3nc(N4CCC(CCOC5CN(c6ccc7c(c6)C(=O)N(C6CCC(=O)NC6=O)C7=O)C5)CC4)ncc3Cl)ccc2n(C)c1=O (centres unmarked) [compound 164, 5-(3-(2-(1-(5-chloro-4-((1-methyl-2-oxo-3-(2-oxopropoxy)-1,2-dihydroquinolin-6-yl)amino)pyrimidin-2-yl)piperidin-4-yl)ethoxy)azetidin-1-yl)-2-(2,6-dioxopiperidin-3-yl)isoindoline-1,3-dione]
10 to 50 nM | 50 to 70% | 10 to 50 nM | CC(=O)COc1cc2cc(Nc3nc(N4CCC(CN5CC6(C5)CN(c5ccc7c(c5)C(=O)N(C5CCC(=O)NC5=O)C7=O)C6)CC4)ncc3Cl)ccc2n(C)c1=O (centres unmarked) [compound 165, 5-(6-((1-(5-chloro-4-((1-methyl-2-oxo-3-(2-oxopropoxy)-1,2-dihydroquinolin-6-yl)amino)pyrimidin-2-yl)piperidin-4-yl)methyl)-2,6-diazaspiro[3.3]heptan-2-yl)-2-(2,6-dioxopiperidin-3-yl)isoindoline-1,3-dione]
50 to 100 nM | < 50% | > 100 nM | CN(C)C(=O)COc1cc2cc(Nc3nc(N4CCC(CN5CCN(c6ccc7c(c6)C(=O)N(C6CCC(=O)NC6=O)C7=O)CC5)CC4)ncc3Cl)ccc2n(C)c1=O (centres unmarked) [compound 166, 2-((6-((5-chloro-2-(4-((4-(2-(2,6-dioxopiperidin-3-yl)-1,3-dioxoisoindolin-5-yl)piperazin-1-yl)methyl)piperidin-1-yl)pyrimidin-4-yl)amino)-1-methyl-2-oxo-1,2-dihydroquinolin-3-yl)oxy)-N,N-dimethylacetamide]
10 to 50 nM | < 50% | > 100 nM | CNC(=O)COc1cc2cc(Nc3nc(N4CCCC(COc5ccc(C6CCN(CC#Cc7ccc8c(c7)CN(C7CCC(=O)NC7=O)C8=O)CC6)cc5)C4)ncc3Cl)ccc2n(C)c1=O (centres unmarked) [compound 167, 2-((6-((5-chloro-2-(3-((4-(1-(3-(2-(2,6-dioxopiperidin-3-yl)-1-oxoisoindolin-5-yl)prop-2-yn-1-yl)piperidin-4-yl)phenoxy)methyl)piperidin-1-yl)pyrimidin-4-yl)amino)-1-methyl-2-oxo-1,2-dihydroquinolin-3-yl)oxy)-N-methylacetamide]
10 to 50 nM | 50 to 70% | > 100 nM | CNC(=O)COc1cc2cc(Nc3nc(N4CCC(OCCOCCOCCOCCCOc5ccc6c(c5)CN(C5CCC(=O)NC5=O)C6=O)CC4)ncc3Cl)ccc2n(C)c1=O (centres unmarked) [compound 168, 2-((6-((5-chloro-2-(4-(2-(2-(2-(3-((2-(2,6-dioxopiperidin-3-yl)-1-oxoisoindolin-5-yl)oxy)propoxy)ethoxy)ethoxy)ethoxy)piperidin-1-yl)pyrimidin-4-yl)amino)-1-methyl-2-oxo-1,2-dihydroquinolin-3-yl)oxy)-N-methylacetamide]
10 to 50 nM | 50 to 70% | < 10 nM | CC(=O)COc1cc2cc(Nc3nc(N4CCC(N(C)C5CCN(c6ccc7c(c6)C(=O)N(C6CCC(=O)NC6=O)C7=O)CC5)CC4)ncc3Cl)ccc2n(C)c1=O (centres unmarked) [compound 169, 5-(4-((1-(5-chloro-4-((1-methyl-2-oxo-3-(2-oxopropoxy)-1,2-dihydroquinolin-6-yl)amino)pyrimidin-2-yl)piperidin-4-yl)(methyl)amino)piperidin-1-yl)-2-(2,6-dioxopiperidin-3-yl)isoindoline-1,3-dione]
10 to 50 nM | < 50% | 50 to 100 nM | CC(=O)COc1cc2cc(Nc3nc(N4CCC(OC5CCN(c6ccc7c(c6)C(=O)N(C6CCC(=O)NC6=O)C7=O)CC5)CC4)ncc3Cl)ccc2n(C)c1=O (centres unmarked) [compound 170, 5-(4-((1-(5-chloro-4-((1-methyl-2-oxo-3-(2-oxopropoxy)-1,2-dihydroquinolin-6-yl)amino)pyrimidin-2-yl)piperidin-4-yl)oxy)piperidin-1-yl)-2-(2,6-dioxopiperidin-3-yl)isoindoline-1,3-dione]
10 to 50 nM | < 50% | 10 to 50 nM | CC(=O)COc1cc2cc(Nc3nc(C#CC4CCN(c5ccc6c(c5)C(=O)N(C5CCC(=O)NC5=O)C6=O)CC4)ncc3Cl)ccc2n(C)c1=O (centres unmarked) [compound 171, 5-(4-((5-chloro-4-((1-methyl-2-oxo-3-(2-oxopropoxy)-1,2-dihydroquinolin-6-yl)amino)pyrimidin-2-yl)ethynyl)piperidin-1-yl)-2-(2,6-dioxopiperidin-3-yl)isoindoline-1,3-dione]
≥ 100 nM | – | > 100 nM | CC(=O)COc1cc2cc(Nc3nc(N4CC(OCCN5CCN(c6ccc7c(c6)C(=O)N(C6CCC(=O)NC6=O)C7=O)CC5)C4)ncc3Cl)ccc2n(C)c1=O (centres unmarked) [compound 172, 5-(4-(2-((1-(5-chloro-4-((1-methyl-2-oxo-3-(2-oxopropoxy)-1,2-dihydroquinolin-6-yl)amino)pyrimidin-2-yl)azetidin-3-yl)oxy)ethyl)piperazin-1-yl)-2-(2,6-dioxopiperidin-3-yl)isoindoline-1,3-dione]

Structure (SMILES) | IC50 [1] | Dmax [2] | DC50 [2]
CNC(=O)COc1cc2cc(Nc3nc(N4CCC(OCCCCOc5cc(-c6scnc6C)ccc5CNC(=O)[C@@H]5C[C@@H](O)CN5C(=O)C(c5cc(C)no5)C(C)C)CC4)ncc3Cl)ccc2n(C)c1=O (stereo partly drawn) [compound 159, (2S,4R)-N-(2-(4-((1-(5-chloro-4-((1-methyl-3-(2-(methylamino)-2-oxoethoxy)-2-oxo-1,2-dihydroquinolin-6-yl)amino)pyrimidin-2-yl)piperidin-4-yl)oxy)butoxy)-4-(4-methylthiazol-5-yl)benzyl)-4-hydroxy-1-(3-methyl-2-(3-methylisoxazol-5-yl)butanoyl)pyrrolidine-2-carboxamide] | 10 to 50 nM | < 50% | > 100 nM
